Laboratory results reported in the kinase profiling compilation of Christmann-Franck et al. (2016).

Key:
Assay in all cases: radiometric filter-binding kinase assay, Kinase HotSpot
Settings in all cases: compound 0.5 µM; ATP 10 µM
RPS6KA6 KD1 KD2 (human) = RPS6KA6 KD1 KD2 (human) (UniProt Q9UK32)
NEK2 (human) = NEK2 (human) (UniProt P51955)
FLT3 (human) = FLT3 (human) (UniProt P36888)
DYRK3 (human) = DYRK3 (human) (UniProt O43781)
FGFR1 (human) = FGFR1 (human) (UniProt P11362)
WNK3 (human) = WNK3 (human) (UniProt Q9BYP7)
GSK3A (human) = GSK3A (human) (UniProt P49840)
GSK3A (human), sequence (P49840 whole entry, looked up): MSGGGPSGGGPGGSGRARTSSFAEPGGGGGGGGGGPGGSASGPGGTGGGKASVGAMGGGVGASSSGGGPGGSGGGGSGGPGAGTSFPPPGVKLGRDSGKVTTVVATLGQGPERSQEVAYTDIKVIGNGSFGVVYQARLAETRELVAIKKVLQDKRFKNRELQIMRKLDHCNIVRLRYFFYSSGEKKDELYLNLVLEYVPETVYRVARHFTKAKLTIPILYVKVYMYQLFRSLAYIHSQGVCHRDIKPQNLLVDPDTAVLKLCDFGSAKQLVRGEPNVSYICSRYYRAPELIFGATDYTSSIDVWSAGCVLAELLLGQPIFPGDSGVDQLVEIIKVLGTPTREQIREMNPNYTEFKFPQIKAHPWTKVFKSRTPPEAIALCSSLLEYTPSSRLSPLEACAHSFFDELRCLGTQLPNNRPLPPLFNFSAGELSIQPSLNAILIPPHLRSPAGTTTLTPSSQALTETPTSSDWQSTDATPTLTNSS

INSR (human) = INSR (human) (UniProt P06213)
MARK1 (human) = MARK1 (human) (UniProt Q9P0L2)
BRSK2 (human) = BRSK2 (human) (UniProt Q8IWQ3)
BRSK2 (human), sequence (Q8IWQ3 whole entry, looked up): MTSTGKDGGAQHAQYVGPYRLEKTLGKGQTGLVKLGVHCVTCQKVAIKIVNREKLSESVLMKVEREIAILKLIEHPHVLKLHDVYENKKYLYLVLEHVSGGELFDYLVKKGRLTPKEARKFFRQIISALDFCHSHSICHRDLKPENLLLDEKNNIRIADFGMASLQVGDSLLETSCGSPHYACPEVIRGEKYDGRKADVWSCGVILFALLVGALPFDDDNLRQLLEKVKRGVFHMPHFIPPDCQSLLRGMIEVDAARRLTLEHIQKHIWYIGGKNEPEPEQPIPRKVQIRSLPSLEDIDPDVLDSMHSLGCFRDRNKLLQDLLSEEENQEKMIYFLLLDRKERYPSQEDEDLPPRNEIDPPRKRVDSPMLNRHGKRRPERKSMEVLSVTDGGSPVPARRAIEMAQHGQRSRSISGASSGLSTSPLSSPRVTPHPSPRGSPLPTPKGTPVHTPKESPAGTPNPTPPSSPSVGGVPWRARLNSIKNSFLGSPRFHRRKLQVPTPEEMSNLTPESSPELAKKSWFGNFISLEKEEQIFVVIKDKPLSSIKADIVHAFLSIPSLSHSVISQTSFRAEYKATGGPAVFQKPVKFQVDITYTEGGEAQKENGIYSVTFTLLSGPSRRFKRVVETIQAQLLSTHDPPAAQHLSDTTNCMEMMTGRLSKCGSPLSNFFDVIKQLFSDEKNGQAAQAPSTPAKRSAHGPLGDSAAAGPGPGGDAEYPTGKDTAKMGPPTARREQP

SRPK2 (human) = SRPK2 (human) (UniProt P78362)
MAPK10 (human) = MAPK10 (human) (UniProt P53779)
NTRK2 (human) = NTRK2 (human) (UniProt Q16620)
NTRK2 (human), sequence (Q16620 whole entry, looked up): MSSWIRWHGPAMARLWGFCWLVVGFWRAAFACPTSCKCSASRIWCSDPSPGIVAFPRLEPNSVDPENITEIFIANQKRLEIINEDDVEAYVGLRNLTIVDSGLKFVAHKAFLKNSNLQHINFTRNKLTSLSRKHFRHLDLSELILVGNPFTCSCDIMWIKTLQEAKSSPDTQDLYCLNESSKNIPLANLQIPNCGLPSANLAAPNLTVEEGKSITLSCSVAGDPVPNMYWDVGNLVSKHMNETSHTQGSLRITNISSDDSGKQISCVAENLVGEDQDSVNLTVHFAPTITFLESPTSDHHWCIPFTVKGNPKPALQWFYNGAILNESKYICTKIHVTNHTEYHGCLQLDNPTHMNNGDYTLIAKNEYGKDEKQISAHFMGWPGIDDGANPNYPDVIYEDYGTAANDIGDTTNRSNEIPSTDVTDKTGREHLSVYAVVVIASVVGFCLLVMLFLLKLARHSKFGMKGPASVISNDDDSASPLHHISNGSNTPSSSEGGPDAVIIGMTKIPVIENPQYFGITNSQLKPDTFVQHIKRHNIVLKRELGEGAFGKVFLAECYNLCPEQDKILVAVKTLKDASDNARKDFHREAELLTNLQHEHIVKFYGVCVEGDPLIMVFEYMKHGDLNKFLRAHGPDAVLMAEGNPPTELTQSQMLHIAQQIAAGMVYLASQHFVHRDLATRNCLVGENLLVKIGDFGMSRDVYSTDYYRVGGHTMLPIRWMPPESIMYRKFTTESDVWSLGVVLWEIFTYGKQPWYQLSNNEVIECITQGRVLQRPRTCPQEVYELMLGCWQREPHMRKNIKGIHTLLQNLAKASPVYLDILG

PTK2B (human) = PTK2B (human) (UniProt Q14289)
CSNK1G3 (human) = CSNK1G3 (human) (UniProt Q9Y6M4)
RPS6KA4 KD2 (human) = RPS6KA4 KD2 (human) (UniProt O75676)
CSNK2A2 (human) = CSNK2A2 (human) (UniProt P19784)
DMPK (human) = DMPK (human) (UniProt Q09013)
ITK (human) = ITK (human) (UniProt Q08881)
PRKCE (human) = PRKCE (human) (UniProt Q02156)
BMX (human) = BMX (human) (UniProt P51813)
MAP3K9 (human) = MAP3K9 (human) (UniProt P80192)
CDK2 CCNE1 (human) = CDK2 CCNE1 (human) (UniProt P24941+P24864)
GSG2 (human) = GSG2 (human) (UniProt Q8TF76)
GSG2 (human), sequence (Q8TF76 whole entry, looked up): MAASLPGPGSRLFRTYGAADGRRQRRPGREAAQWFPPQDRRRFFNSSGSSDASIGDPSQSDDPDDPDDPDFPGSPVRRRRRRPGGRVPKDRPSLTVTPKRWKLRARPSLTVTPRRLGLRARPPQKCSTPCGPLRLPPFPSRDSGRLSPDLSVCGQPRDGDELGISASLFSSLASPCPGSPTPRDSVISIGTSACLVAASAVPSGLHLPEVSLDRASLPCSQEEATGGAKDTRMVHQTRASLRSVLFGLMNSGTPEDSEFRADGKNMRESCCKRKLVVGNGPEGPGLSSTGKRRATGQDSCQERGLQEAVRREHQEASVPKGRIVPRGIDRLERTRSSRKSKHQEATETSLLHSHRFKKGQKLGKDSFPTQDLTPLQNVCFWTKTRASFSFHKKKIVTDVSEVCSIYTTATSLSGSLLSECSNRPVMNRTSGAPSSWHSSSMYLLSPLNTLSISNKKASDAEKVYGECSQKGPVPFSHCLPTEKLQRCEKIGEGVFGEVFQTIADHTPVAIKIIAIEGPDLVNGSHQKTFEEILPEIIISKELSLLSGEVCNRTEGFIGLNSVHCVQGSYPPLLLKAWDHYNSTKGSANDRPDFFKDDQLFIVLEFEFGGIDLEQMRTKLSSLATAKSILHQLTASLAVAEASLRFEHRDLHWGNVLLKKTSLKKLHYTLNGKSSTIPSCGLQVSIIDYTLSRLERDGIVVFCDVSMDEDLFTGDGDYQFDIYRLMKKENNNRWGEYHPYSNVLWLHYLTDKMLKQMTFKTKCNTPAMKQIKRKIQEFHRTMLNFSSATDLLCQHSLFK

CDK1 CCNA2 (human) = CDK1 CCNA2 (human) (UniProt P06493+P20248)
EPHA1 (human) = EPHA1 (human) (UniProt P21709)
BLK (human) = BLK (human) (UniProt P51451)
STK4 (human) = STK4 (human) (UniProt Q13043)
STK4 (human), sequence (Q13043 whole entry, looked up): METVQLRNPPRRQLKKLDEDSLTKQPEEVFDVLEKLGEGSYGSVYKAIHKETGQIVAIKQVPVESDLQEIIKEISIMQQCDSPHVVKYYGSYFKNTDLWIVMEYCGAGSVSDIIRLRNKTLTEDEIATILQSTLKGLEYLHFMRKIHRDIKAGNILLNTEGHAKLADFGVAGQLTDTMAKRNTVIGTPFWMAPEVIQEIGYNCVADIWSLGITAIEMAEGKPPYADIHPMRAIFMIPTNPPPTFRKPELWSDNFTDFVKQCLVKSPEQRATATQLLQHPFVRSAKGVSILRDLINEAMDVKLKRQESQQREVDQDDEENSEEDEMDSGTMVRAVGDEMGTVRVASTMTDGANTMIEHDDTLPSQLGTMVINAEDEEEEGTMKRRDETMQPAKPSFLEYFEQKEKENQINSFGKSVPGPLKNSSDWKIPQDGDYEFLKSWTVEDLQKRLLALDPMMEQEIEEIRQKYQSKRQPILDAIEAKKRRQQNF

STK3 (human) = STK3 (human) (UniProt Q13188)
MAP4K5 (human) = MAP4K5 (human) (UniProt Q9Y4K4)
[1] = tested on: SGK1 (human), O00141 [S422D]
SGK1 (human), O00141 [S422D], sequence (O00141 whole entry S422D, looked up): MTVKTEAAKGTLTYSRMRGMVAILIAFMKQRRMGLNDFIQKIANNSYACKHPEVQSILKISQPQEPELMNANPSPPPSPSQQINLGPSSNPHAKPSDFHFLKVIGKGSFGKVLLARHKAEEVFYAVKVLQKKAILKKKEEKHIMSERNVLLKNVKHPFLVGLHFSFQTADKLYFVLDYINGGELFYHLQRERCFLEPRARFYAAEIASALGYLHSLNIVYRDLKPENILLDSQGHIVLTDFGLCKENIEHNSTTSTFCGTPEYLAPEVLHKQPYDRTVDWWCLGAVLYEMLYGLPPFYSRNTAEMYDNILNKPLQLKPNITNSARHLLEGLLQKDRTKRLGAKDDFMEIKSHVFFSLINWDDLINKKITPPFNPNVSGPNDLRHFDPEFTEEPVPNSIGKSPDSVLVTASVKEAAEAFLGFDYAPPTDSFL

PHKG1 (human) = PHKG1 (human) (UniProt Q16816)
LIMK1 (human) = LIMK1 (human) (UniProt P53667)
TXK (human) = TXK (human) (UniProt P42681)
MAP2K1 (human) = MAP2K1 (human) (UniProt Q02750)
MAP2K2 (human) = MAP2K2 (human) (UniProt P36507)
PRKACA (human) = PRKACA (human) (UniProt P17612)
CDK7 CCNH MNAT1 (human) = CDK7 CCNH MNAT1 (human) (UniProt P50613+P51948+P51946)
AURKC (human) = AURKC (human) (UniProt Q9UQB9)
AURKC (human), sequence (Q9UQB9 whole entry, looked up): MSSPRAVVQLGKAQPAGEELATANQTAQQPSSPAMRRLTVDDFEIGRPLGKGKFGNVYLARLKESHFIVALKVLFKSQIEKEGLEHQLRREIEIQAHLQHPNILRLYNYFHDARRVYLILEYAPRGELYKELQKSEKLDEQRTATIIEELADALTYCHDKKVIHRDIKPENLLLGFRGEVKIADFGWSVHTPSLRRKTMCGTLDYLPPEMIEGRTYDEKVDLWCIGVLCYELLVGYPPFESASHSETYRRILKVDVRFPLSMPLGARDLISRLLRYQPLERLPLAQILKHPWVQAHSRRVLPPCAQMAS

CSNK2A1 (human) = CSNK2A1 (human) (UniProt P68400)
EPHA2 (human) = EPHA2 (human) (UniProt P29317)
EPHA2 (human), sequence (P29317 whole entry, looked up): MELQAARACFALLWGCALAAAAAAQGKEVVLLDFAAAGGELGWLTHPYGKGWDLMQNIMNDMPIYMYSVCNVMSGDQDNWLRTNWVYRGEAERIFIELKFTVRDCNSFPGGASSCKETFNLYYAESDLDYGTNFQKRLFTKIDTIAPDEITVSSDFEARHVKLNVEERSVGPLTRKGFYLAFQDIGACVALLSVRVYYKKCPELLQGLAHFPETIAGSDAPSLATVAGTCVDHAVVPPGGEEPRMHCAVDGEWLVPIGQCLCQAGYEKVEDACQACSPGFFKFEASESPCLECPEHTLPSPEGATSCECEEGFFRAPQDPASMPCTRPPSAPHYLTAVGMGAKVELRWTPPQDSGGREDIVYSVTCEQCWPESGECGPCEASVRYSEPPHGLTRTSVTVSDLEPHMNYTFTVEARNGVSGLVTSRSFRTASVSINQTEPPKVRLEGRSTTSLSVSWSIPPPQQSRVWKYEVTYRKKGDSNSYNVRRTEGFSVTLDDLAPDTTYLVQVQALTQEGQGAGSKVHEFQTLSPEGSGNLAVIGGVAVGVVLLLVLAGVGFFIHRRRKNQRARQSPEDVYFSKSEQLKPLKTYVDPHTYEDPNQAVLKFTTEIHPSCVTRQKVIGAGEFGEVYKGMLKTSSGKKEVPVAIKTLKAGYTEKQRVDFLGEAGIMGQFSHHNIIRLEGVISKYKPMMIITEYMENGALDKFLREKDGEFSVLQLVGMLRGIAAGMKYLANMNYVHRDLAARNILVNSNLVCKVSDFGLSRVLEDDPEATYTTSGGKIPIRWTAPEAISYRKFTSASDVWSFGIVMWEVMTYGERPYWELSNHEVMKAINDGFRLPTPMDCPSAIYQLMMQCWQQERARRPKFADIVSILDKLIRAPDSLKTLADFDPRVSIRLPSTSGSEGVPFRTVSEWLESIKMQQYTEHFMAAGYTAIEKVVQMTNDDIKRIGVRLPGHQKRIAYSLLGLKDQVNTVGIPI

NTRK3 (human) = NTRK3 (human) (UniProt Q16288)

| Compound | residual activity (RPS6KA6 KD1 KD2 (human)) | residual activity (NEK2 (human)) | residual activity (DYRK3 (human)) | residual activity (FGFR1 (human)) | residual activity (WNK3 (human)) | residual activity (GSK3A (human)) | residual activity (INSR (human)) | residual activity (MARK1 (human)) | residual activity (BRSK2 (human)) | residual activity (SRPK2 (human)) | residual activity (MAPK10 (human)) | residual activity (NTRK2 (human)) | residual activity (PTK2B (human)) | residual activity (CSNK1G3 (human)) | residual activity (RPS6KA4 KD2 (human)) | residual activity (DMPK (human)) | residual activity (ITK (human)) | residual activity (PRKCE (human)) | residual activity (STK4 (human)) | residual activity (MAP2K1 (human)) | also measured |
| --- | --- | --- | --- | --- | --- | --- | --- | --- | --- | --- | --- | --- | --- | --- | --- | --- | --- | --- | --- | --- | --- |
| N#Cc1c(NC(=O)c2cccc3ccccc23)sc2c1CCCC2 | 101% | 88.1% | 128% | 105% | 99.2% | 97.2% | 98.2% | 100% | 100% | 99.2% | 112% | 100% | 108% | 104% | 111% | 109% | 101% | 99.1% | 93.1% | 98.4% | residual activity (FLT3 (human)): 111%; residual activity (CSNK2A2 (human)): 92.2%; residual activity (BMX (human)): 101%; residual activity (MAP3K9 (human)): 99.5%; residual activity (CDK2 CCNE1 (human)): 89.1%; residual activity (GSG2 (human)): 99%; residual activity (CDK1 CCNA2 (human)): 92.1%; residual activity (EPHA1 (human)): 103%; residual activity (BLK (human)): 105%; residual activity (STK3 (human)): 111%; residual activity (MAP4K5 (human)): 93.8%; residual activity [1]: 108%; residual activity (PHKG1 (human)): 93.8%; residual activity (LIMK1 (human)): 102%; residual activity (TXK (human)): 97%; residual activity (MAP2K2 (human)): 106%; residual activity (PRKACA (human)): 102%; residual activity (CDK7 CCNH MNAT1 (human)): 101%; residual activity (AURKC (human)): 95%; residual activity (CSNK2A1 (human)): 101% |
| CN[C@@H]1C[C@H]2O[C@@](C)([C@@H]1OC)n1c3ccccc3c3c4c(c5c6ccccc6n2c5c31)C(=O)NC4 | – | – | – | – | – | – | 3.14% | – | 3.53% | – | – | – | – | – | 6.74% | 4.83% | 2.89% | – | -0.197% | 3.83% | residual activity (EPHA2 (human)): 21.3%; residual activity (PRKACA (human)): 1.93% |
| Nc1ncnc2c1cnn2-c1ccccc1 | 94.1% | 98.8% | 96.8% | 93% | 97.2% | 90.3% | 103% | 94.8% | 95.3% | 104% | 100% | 88.7% | 108% | 93.4% | 106% | 106% | 92.7% | 98.3% | 96.8% | 93.9% | residual activity (FLT3 (human)): 88.9%; residual activity (BMX (human)): 96.8%; residual activity (MAP3K9 (human)): 106%; residual activity (CDK2 CCNE1 (human)): 93.9%; residual activity (GSG2 (human)): 94.8%; residual activity (EPHA1 (human)): 92.4%; residual activity (BLK (human)): 100%; residual activity (STK3 (human)): 92.3%; residual activity (MAP4K5 (human)): 87.2%; residual activity (NTRK3 (human)): 93.6%; residual activity (EPHA2 (human)): 96%; residual activity [1]: 90.9%; residual activity (PHKG1 (human)): 94.2%; residual activity (LIMK1 (human)): 89.1%; residual activity (TXK (human)): 94.8%; residual activity (MAP2K2 (human)): 96.9%; residual activity (CDK7 CCNH MNAT1 (human)): 102%; residual activity (AURKC (human)): 98.2%; residual activity (CSNK2A1 (human)): 94.4% |
| COc1cc2c(N3CCN(C(=O)Nc4ccc(OC(C)C)cc4)CC3)ncnc2cc1OCCCN1CCCCC1 | 106% | 101% | 109% | 101% | 102% | 105% | 99.3% | 89.9% | 98.6% | 103% | 94.6% | 81.7% | 99.3% | 95% | 120% | 101% | 99% | 104% | 96.2% | 113% | residual activity (CSNK2A2 (human)): 92.9%; residual activity (BMX (human)): 109%; residual activity (MAP3K9 (human)): 108%; residual activity (CDK2 CCNE1 (human)): 96.7%; residual activity (GSG2 (human)): 99.5%; residual activity (CDK1 CCNA2 (human)): 96%; residual activity (EPHA1 (human)): 96.1%; residual activity (BLK (human)): 100%; residual activity (STK3 (human)): 94.7%; residual activity (MAP4K5 (human)): 87.6%; residual activity (EPHA2 (human)): 102%; residual activity [1]: 123%; residual activity (PHKG1 (human)): 92.6%; residual activity (LIMK1 (human)): 88.6%; residual activity (TXK (human)): 105%; residual activity (MAP2K2 (human)): 116%; residual activity (PRKACA (human)): 103%; residual activity (CDK7 CCNH MNAT1 (human)): 109%; residual activity (AURKC (human)): 97%; residual activity (CSNK2A1 (human)): 102% |
